Assay results as given in patent US20060111366A1, “Pharmaceutical use of substituted amides” (Novo Nordisk A/S, priority 2003, published 2006).

Target: T1, h-11βHSD1 (Homo sapiens, UniProt P28845)
T1 construct: made in house
Assay: 11βHSD1 enzyme assay (scintillation proximity assay, conversion of 3H-cortisone to 3H-cortisol)
Type: biochemical
Conditions: extract of yeast transformed with h-11βHSD1; 120 nM 3H-cortisone, 4 mM β-NADPH, 60 min at 30° C.
Protocol: ^3H-cortisone and anti-rabbit Ig coated scintillation proximity assay (SPA) beads were purchased from Amersham Pharmacia Biotech, β-NADPH was from Sigma and rabbit anticortisol antibodies were from Fitzgerald. An extract of yeast transformed with h-11βHSD1 (Hult et al., FEBS Lett., 441, 25 (1998)) was used as the source of enzyme. The test compounds were dissolved in DMSO (10 mM). All dilutions were performed in a buffer containing 50 mM TRIS-HCl (Sigma Chemical Co), 4 mM EDTA (Sigma Chemical Co), 0.1% BSA (Sigma Chemical Co), 0.01% Tween-20 (Sigma Chemical Co) and 0.005% bacitracin (Novo Nordisk A/S), pH=7.4. Optiplate 96 wells plates were supplied by Packard. The amount of ^3H-cortisol bound to the SPA beads was measured on TopCount NXT, Packard.
h-11βHSD1, 120 nM ^3H-cortisone, 4 mM β-NADPH, antibody (1:200), serial dilutions of test compound and SPA particles (2 mg/well) were added to the wells. The reaction was initiated by mixing the different components and was allowed to proceed under shaking for 60 min at 30° C. […] Data was analysed using GraphPad Prism software.

T1 sequence (P28845 whole entry): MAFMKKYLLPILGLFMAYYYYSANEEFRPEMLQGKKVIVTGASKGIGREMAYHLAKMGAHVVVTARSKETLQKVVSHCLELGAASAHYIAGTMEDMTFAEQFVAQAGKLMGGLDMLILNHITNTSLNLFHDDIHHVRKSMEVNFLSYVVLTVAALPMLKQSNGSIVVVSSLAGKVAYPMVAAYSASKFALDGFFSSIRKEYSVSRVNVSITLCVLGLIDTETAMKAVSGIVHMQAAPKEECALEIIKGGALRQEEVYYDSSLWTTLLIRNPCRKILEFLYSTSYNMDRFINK

Compound CN1CCC(N(C)C(=O)CCCOc2ccccc2)CC1 [(I) 2, N-Methyl-N-(1-methyl-piperidin-4-yl)-4-Phenoxy-butyramide] has an IC50 of 120000 nM.

In the case of CC1Oc2c(C(=O)N(C)C3CCCCC3)cccc2C1C (stereo not drawn) [(VI) 1, 2,3-Dimethyl-2,3-dihydro-benzofuran-7-carboxylic acid cyclohexyl-methyl-amide], the IC50 is reported as 6 nM.

CN(C(=O)c1ccc2cc[nH]c2c1)C1CCCCC1 [(VII) 2, 1H-Indole-6-carboxylic acid cyclohexyl-methyl-amide] gave an IC50 of 118 nM.

CCCc1c(C(=O)N(C)C2CCCCC2)cnn1-c1ccc(Cl)cc1 [(III) 1, 1-(4-Chloro-phenyl)-5-propyl-1H-pyrazole-4-carboxylic acid cyclohexyl-methyl-amide] was tested, and the IC50 was 40 nM.

CN(C(=O)CCCOc1ccc2c(c1)OCO2)C1CCCCC1 [(I) 1, 4-(Benzo[1,3]dioxol-5-yloxy)-N-cyclohexyl-N-methyl-butyramide] was tested, and the IC50 was 560 nM.

CN(C(=O)c1ccc2[nH]cnc2c1)C1CCCCC1 [(V) 1, 1H-Benzoimidazole-5-carboxylic acid cyclohexyl-methyl-amide] was tested, and the IC50 was 45 nM.
